Experimental findings from US20050197350A1, “Novel quinoline, tetrahydroquinazoline, and pyrimidine derivatives and methods of treatment related to the use thereof” (TAISHO PHARMACEUTICAL CO., LTD., priority 2003, published 2005) are described below.

Counter-ions that a name gives are not always drawn. Like-named read-outs stand apart in the source and are kept apart here.

The target in this experiment is MCH receptor (Homo sapiens, UniProt Q99705). The experiment can be described thus: High throughput functional screening FLIPR/FDSS6000 (intracellular Ca2+ evoked by MCH). To be noted: FLIPR/FDSS, antagonist activity vs 50 nM MCH, class by percent of control at 10^−7 M or IC50, read-out: class. In kind it is cell-based. The gist of the method: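 For antagonist testing, compound-treated cells (30 min, 37 °C) were stimulated with 50 nM MCH and intracellular Ca2+ followed by Fluo4 fluorescence on FLIPR/FDSS6000. Receptor was a constitutively active, non-endogenous MCH receptor; dye loading 4 μM Fluo4-AM, 1 h, 37 °C.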

Take `Cc1cc(N(C)C)nc(N[C@H]2CC[C@@H](NC(=O)c3cccnc3S(=O)(=O)c3ccc(F)cc3)CC2)n1` [Example 3368, N-(cis-4-{[4-(dimethylamino)-6-methylpyrimidin-2-yl]amino}cyclohexyl)-2-[(4-fluorophenyl)sulfonyl]nicotinamide]: the IC50 was 50 to 200 nM.

On to `Cc1cc(N[C@H]2CC[C@@H](NC(=O)c3csc([N+](=O)[O-])c3)CC2)nc2ccccc12` [Example 3074, 5-Nitro-thiophene-3-carboxylic acid [cis-4-(4-methyl-quinolin-2-ylamino)-cyclohexyl]-amide hydrochloride], for which the IC50 (table after the classification) is less than 50 nM.

On to `O=C(COc1cccc(Cl)c1)N[C@H]1CC[C@@H](Nc2ccc3ccccc3n2)CC1` [Example 3063, 2-(3-Chloro-phenoxy)-N-[cis-4-(quinolin-2-ylamino)-cyclohexyl]-acetamide hydrochloride], for which the IC50 (table after the classification) was less than 50 nM.

With `Cc1cc(N(C)C)nc(N[C@H]2CC[C@@H](NC(=O)c3cccnc3S(=O)(=O)c3ccccc3C(F)(F)F)CC2)n1` [Example 3381, N-(cis-4-{[4-(dimethylamino)-6-methylpyrimidin-2-yl]amino}cyclohexyl)-2-{[2-(trifluoromethyl)phenyl]-sulfonyl}nicotinamide], the IC50 was more than 200 nM.

Regarding `Cc1cc(N(C)C)nc(N[C@H]2CC[C@@H](NC(=O)c3cccnc3S(=O)(=O)c3ccccc3C)CC2)n1` [Example 3375, N-(cis-4-{[4-(dimethylamino)-6-methylpyrimidin-2-yl]amino}cyclohexyl)-2-[(2-methylphenyl)sulfonyl]nicotinamide], the IC50 fell in the range of 50 to 200 nM.

As to `Cc1cc(N(C)C)nc(N[C@H]2CC[C@@H](NC(=O)NC(C)(C)c3cc(C(F)(F)F)cc(C(F)(F)F)c3)CC2)n1` [Example 3263, N-{1-[3,5-bis(trifluoromethyl)phenyl]-1-methylethyl}-N′-(cis-4-{[4-(dimethylamino)-6-methylpyrimidin-2-yl]amino}-cyclohexyl)urea], the IC50 is 50 to 200 nM.

As to `O=C(N[C@H]1CC[C@@H](Nc2nccc(C(F)(F)F)n2)CC1)c1ccc(F)c(F)c1` [Example 3130, 3,4-Difluoro-N-[cis-4-(4-trifluoromethyl-pyrimidin-2-yl)amino-cyclohexyl]-benzamide hydrochloride], for the setting “table after the classification”, the IC50 was more than 200 nM.

As to `O=C(COc1ccc(Cl)c(Cl)c1)N[C@H]1CC[C@@H](Nc2ccc3ccccc3n2)CC1` [Example 3065, 2-(3,4-Dichloro-phenoxy)-N-[cis-4-(quinolin-2-ylamino)-cyclohexyl]-acetamide hydrochloride], the IC50 (table after the classification) is less than 50 nM.

`Cc1cnc(N[C@H]2CC[C@@H](NCC(=O)c3ccc(Cl)cc3)CC2)nc1N(C)C` [Example 3260, 1-(4-chlorophenyl)-2-[(cis-4-{[4-(dimethylamino)-5-methylpyrimidin-2-yl]amino}cyclohexyl)amino]ethanone]: the IC50 was in the range of 50 to 200 nM.

Consider `Cc1cc(N(C)C)nc(N[C@H]2CC[C@@H](NC(=O)c3cccnc3S(=O)(=O)c3ccccc3Br)CC2)n1` [Example 3372, 2-[(2-bromophenyl)sulfonyl]-N-(cis-4-{[4-(dimethylamino)-6-methylpyrimidin-2-yl]amino}cyclohexyl)nicotinamide], for which the IC50 was more than 200 nM.

In the case of `O=C(N[C@H]1CC[C@@H](Nc2ccc3ccccc3n2)CC1)c1cccnc1Oc1ccc(F)cc1` [Example 3054, 2-(4-Fluoro-phenoxy)-N-[cis-4-(quinolin-2-ylamino)-cyclohexyl]-nicotinamide hydrochloride], under “table after the classification”, the IC50 was less than 50 nM.

As to `CNc1cc(N[C@H]2CC[C@@H](CNCc3ccc(Br)cc3OC(F)(F)F)CC2)nc2ccccc12` [Example 3, N^2-{cis-4-[(4-Bromo-2-trifluoromethhxy-benzyl)-amino-methyl]-cyclohexyl}-N^4-methyl-quinoline-2,4-diamine dihydrochloride], the IC50 (table after the classification) is less than 50 nM.

In the case of `Cc1cnc(N[C@H]2CC[C@@H](NC(=O)Nc3cccc(F)c3)CC2)nc1N(C)C` [Example 3325, N-(cis-4-{[4-(dimethylamino)-5-methylpyrimidin-2-yl]amino}cyclohexyl)-N′-(3-fluorophenyl)urea], the IC50 was 50 to 200 nM.
